Reference: US20110052667A1, “COMPOSITIONS AND METHODS FOR INHIBITING ANGIOGENESIS AND TUMORIGENESIS” (Sylgen Laboratories, Inc., priority 2007, published 2011)
Entries after “also recorded” stand apart in the source; their conditions may differ.

What was measured:
human EphB4 promoter [1] = assay: EphB4 promoter luciferase reporter assay in R+ cells (mouse embryo fibroblasts expressing human IGF-I receptor); assay type: cell-based
Text: The TAAT motif at position −1365 of the −1500/−7mut construct used in conditions 7-9 was substituted with a TGCT motif by site directed mutagenesis. In FIG. 2, Series 1: Firefly Luciferare signal (pGL3-Luc EphB4 constructs); Seies 2: Renilla Luciferase signal (mock vector); and RLU: Relative Luciferase Units. Conditions: 1-3: −7/−1508 EphB4 promoter region; 4-6: −7/−1028 EphB4 promoter region; 7-9: −7/−1508mut EphB4 promoter construct, wherein: 1. Serum Free, EphB4 promoter −7/−1508; 2. IGF-II, 10 nM, EphB4 promoter −7/−1508; 3.10% FBS, EphB4 promoter −7/−1508; 4. Serum Free, EphB4 promoter −7/−1028; 5. IGF-II, 10 nM, EphB4 promoter −7/−1028; 6.10% FBS, EphB4 promoter −7/−1028; 7. Serum Free, EphB4 promoter −7/−1508mut; 8. IGF-II, 10 nM, EphB4 promoter −7/−1508mut; and 9.10% FBS, EphB4 promoter −7/−1508mut.
In order to establish the role of IGF-II on EphB4 expression, a mouse embryo fibroblast cell line expressing the human IGF-I receptor (R^+ cells) was transiently transfected with three variants of the human EphB4 promoter previously described by Bruhl et al., supra, along with trace amounts of a renilla luciferase mock vector. […] Cell lysates were generated and then assayed for Luciferase activity using a Promega Dual luciferase assay and a Veritas Luminescence reader (Biotek).

human EphB4 promoter [2] = assay: EphB4 promoter luciferase reporter assay in R-InsR-A cells (IGF-IR null embryo fibroblasts expressing human InsR-A); assay type: cell-based; settings: IGF-II 10 nM
Protocol: In FIG. 3, Series 1: Firefly Luciferare signal (pGL3-Luc −1508/−7 EphB4 construct); Series 2: Renilla Luciferase signal (mock vector); and RLU=Relative Luciferase Units. Conditions: 1. R^+ cells (IGF-IR^+); Serum Free, EphB4 promoter −7/−1508; 2. R^+ cells (IGF-IR^+); IGF-II, 10 nM, EphB4 promoter −7/−1508; 3. R-IRA cells (InsR-A^+); Serum Free, EphB4 promoter −7/−1508; 4. R-IRA cells (InsR-A^+); IGF-II, 10 nM, EphB4 promoter −7/−1508.
In order to establish the role of IGF-II on EphB4 expression, a mouse embryo fibroblast cell line expressing the human IGF-I receptor (R^+ cells) was transiently transfected with three variants of the human EphB4 promoter previously described by Bruhl et al., supra, along with trace amounts of a renilla luciferase mock vector. 24 hrs post-trasfection, the cells were serum starved for 12 hrs and then stimulated (or not) with 10 nM IGF-II for 8 hrs. Cell lysates were generated and then assayed for Luciferase activity using a Promega Dual luciferase assay and a Veritas Luminescence reader (Biotek). […]

IGF-II: Insulin-like growth factor-II, used at 10 nM to stimulate cells carrying EphB4 promoter reporter constructs
EphB4 reporter gene activation, promoter with -1500 to -1028 region deleted (-1028 to -7 construct) (human EphB4 promoter [1]; 10 nM IGF-II): but not when the −1500 to −1028 region is deleted | EphB4 gene activation (reporter gene, full length promoter -1508 to -7) (human EphB4 promoter [1]; 10 nM IGF-II for 8 hrs, Dual luciferase assay, compared with serum (10% FBS)): able to stimulate EphB4 gene activation at levels comparable to the ones obtained with serum activation; also recorded: causes the activation of the EphB4 reporter gene | EphB4 gene activation (reporter gene, promoter -7/-1508) through InsR-A (human EphB4 promoter [2]): comparable to that obtained through IGF-IR activation
